Earlier results on 1 molecule are cited in patent publication EP0557244B1, “Dosage forms having prolonged active-ingredient release” (Siegfried Pharma AG, priority 1992, dated 1993).

Like-named read-outs stand apart in the source and are kept apart here.

[1] abbreviates: 20 mg of crystalline nifedipine, Pabst et al.
[2] abbreviates: 20 mg of dissolved nifedipine in capsules, Pabst et al.

For `COC(=O)C1=C(C)NC(C)=C(C(=O)OC)C1c1ccccc1[N+](=O)[O-]` [nifedipine], the plasma level peaks entry reads like this: under setting [1], “about 40 ng/ml”; under setting [2], “about 200 ng/ml”; (tablet containing 40 mg of nifedipine (EP 220 760), initially) “more than 60 ng/ml”. Besides, the “time of plasma level peaks” value is “about 1.5 hours” under setting [1] and “about 30 minutes” under setting [2].
